Reference: article PMC4035429 (Neuroscience, 2014)

Key:
LRP1 [1] = target: LRP1 (Rattus norvegicus, UniProt G3V928); test: Aβ efflux through Z310 monolayer with LRP1 inhibition; format: cell-based; conditions: mean±SD
Aβ = conditions: ref Kanekiyo and Bu, 2009; cited from earlier work
LRP1 [2] = test: LRP1 knockdown efficiency in Z310 cells by Western blot; format: cell-based, rat; conditions: 10nM siRNA, LRP1 to β-actin ratio
[3] = LRP1 knockdown by siRNA plus 10mg/ml IVIG, p<0.001, n=3

Sequence of LRP1 (Rattus norvegicus, UniProt G3V928) (G3V928 20-4545): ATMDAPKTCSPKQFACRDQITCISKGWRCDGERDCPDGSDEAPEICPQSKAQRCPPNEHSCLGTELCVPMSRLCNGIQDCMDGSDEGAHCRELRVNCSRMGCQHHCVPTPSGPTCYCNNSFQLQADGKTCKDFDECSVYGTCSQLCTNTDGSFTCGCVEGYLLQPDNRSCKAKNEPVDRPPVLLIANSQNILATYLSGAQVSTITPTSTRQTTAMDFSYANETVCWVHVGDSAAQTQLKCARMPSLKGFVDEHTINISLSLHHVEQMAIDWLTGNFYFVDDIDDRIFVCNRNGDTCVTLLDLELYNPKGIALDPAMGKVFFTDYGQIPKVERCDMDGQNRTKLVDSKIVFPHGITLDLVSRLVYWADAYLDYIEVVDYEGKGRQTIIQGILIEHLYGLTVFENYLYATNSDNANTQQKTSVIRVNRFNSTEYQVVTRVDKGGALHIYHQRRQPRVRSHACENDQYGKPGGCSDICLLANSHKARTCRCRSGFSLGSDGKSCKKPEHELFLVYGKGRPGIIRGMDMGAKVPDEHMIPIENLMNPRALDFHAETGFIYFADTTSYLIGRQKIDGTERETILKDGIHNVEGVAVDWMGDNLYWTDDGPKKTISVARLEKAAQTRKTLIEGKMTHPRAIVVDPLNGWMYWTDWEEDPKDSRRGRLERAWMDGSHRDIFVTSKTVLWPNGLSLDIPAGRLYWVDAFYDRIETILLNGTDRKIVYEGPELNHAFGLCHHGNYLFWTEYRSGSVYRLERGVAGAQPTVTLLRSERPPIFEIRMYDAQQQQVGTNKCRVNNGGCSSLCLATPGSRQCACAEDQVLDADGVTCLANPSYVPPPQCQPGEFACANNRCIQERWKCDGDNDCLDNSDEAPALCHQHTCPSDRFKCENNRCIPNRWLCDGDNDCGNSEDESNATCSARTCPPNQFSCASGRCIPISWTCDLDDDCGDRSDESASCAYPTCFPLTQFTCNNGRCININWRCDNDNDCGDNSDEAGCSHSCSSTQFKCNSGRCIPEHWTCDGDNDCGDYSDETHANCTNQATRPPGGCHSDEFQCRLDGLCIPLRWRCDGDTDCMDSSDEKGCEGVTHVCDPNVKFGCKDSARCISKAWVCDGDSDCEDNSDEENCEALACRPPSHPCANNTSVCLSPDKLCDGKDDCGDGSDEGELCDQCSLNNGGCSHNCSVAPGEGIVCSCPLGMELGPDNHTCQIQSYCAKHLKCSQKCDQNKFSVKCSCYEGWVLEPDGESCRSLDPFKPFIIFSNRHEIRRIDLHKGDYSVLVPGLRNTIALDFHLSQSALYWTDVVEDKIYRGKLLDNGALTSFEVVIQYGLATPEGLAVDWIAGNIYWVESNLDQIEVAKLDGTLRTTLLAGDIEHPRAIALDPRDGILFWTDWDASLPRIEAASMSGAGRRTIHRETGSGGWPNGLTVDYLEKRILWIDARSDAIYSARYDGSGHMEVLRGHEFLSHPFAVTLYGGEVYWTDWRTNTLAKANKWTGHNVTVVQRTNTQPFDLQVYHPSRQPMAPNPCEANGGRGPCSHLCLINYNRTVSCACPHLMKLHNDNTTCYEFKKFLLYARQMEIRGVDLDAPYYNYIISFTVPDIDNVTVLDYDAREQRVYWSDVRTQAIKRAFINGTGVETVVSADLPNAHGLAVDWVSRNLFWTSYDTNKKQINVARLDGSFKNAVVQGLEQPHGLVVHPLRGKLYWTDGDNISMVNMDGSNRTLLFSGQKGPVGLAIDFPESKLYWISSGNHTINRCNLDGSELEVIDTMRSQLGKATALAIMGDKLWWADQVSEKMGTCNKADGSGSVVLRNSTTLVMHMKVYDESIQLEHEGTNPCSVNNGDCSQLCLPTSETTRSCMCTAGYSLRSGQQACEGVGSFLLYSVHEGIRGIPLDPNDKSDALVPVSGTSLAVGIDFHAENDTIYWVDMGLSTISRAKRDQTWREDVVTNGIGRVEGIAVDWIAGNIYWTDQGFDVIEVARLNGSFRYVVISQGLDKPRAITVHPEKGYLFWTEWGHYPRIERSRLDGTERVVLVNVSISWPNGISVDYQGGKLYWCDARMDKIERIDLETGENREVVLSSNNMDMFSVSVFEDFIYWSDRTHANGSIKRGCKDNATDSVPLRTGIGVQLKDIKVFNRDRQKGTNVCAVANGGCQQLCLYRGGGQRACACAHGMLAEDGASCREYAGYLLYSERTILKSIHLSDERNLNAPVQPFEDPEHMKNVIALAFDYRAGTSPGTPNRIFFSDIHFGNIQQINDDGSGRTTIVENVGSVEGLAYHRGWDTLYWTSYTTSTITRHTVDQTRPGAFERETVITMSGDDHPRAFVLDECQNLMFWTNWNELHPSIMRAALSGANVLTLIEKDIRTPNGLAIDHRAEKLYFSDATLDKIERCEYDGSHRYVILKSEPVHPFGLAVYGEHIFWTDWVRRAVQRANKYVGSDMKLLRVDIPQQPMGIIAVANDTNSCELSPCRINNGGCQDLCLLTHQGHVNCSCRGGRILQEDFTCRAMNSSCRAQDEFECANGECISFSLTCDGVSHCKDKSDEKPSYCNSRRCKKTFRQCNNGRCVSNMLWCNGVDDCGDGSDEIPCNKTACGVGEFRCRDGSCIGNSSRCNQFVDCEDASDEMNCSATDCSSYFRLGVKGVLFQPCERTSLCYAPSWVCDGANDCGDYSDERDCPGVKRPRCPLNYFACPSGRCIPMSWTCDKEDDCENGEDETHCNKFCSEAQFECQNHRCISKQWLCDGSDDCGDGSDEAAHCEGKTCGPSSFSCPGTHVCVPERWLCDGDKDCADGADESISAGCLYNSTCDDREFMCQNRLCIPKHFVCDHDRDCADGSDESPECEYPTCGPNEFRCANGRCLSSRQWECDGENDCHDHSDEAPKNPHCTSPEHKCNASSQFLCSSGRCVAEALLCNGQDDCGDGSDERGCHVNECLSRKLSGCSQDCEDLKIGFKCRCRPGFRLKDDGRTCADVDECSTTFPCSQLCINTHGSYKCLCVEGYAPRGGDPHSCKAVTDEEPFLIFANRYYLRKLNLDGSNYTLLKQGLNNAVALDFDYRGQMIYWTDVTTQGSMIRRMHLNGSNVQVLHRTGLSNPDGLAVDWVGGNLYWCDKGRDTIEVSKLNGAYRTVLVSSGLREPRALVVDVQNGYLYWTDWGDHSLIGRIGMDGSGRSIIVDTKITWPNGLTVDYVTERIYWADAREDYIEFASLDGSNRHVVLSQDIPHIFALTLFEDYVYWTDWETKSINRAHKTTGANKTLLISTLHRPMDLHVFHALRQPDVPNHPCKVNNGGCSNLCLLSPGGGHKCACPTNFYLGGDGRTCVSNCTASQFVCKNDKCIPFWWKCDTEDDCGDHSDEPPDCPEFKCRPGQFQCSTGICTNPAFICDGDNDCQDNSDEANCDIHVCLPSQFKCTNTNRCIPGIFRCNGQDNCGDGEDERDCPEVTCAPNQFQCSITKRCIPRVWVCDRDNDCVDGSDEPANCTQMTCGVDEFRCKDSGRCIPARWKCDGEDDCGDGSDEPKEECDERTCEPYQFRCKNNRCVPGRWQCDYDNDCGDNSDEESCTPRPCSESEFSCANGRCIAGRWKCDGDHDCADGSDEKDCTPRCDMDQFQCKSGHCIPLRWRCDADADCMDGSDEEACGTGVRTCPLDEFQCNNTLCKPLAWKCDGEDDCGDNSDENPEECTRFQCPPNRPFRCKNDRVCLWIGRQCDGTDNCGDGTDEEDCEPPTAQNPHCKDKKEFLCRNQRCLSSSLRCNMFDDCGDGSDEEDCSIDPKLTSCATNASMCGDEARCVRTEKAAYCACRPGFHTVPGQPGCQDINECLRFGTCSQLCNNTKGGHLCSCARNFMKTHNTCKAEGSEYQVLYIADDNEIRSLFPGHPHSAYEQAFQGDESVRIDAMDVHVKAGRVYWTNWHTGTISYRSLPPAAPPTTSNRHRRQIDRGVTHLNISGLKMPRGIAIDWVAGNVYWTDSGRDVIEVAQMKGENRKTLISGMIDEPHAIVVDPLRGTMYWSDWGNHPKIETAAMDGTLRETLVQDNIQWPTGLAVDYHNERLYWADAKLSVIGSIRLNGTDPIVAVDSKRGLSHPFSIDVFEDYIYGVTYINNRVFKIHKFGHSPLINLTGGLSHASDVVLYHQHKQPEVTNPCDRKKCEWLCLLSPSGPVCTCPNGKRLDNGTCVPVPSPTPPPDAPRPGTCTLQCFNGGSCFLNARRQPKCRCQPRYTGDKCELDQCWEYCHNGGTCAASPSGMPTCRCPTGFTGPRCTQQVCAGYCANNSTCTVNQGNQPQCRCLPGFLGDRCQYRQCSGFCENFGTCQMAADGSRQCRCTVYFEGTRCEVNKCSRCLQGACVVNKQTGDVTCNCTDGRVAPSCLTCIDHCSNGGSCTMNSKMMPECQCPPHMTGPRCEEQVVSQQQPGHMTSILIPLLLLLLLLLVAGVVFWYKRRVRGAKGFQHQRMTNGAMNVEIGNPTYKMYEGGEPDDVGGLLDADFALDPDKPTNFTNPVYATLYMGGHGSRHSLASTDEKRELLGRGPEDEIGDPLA

## RAP: recombinant receptor-associated protein (EMD Millipore), a functional inhibitor of LRP1
LRP1 [1]; 100 nM RAP plus 10mg/ml IVIG, IVIG alone 2.52±0.22, p<0.001, n=5
  IVIG-induced Aβ efflux from inner chambers at 1 hr: 1.77 ± 0.1 ng/mL
LRP1 [1]; 100 nM RAP plus 10mg/ml IVIG, IVIG alone 7.61±0.91, p<0.001, n=5
  IVIG-induced Aβ efflux from inner chambers at 3 hrs: 5.41 ± 0.92 ng/mL
Aβ
  concentration at which RAP could bind Aβ: above 500 nM

## Aβ1-40: beta-amyloid 1-40 peptide (gift from Eli Lilly) added to the inner chamber at 1 μM
Z310 cells
  change of TEER between treated and untreated samples: little change

## LRP1 siRNA: siRNA from Sigma-Aldrich; sense 5′ -CCUAUCUUUGAGAUCCGAA-3′, antisense 5′ -UUCGGAUCUCAAAGAUAGG-3′ (chemistry not given here)
LRP1 [1]; [3]
  IVIG-induced Aβ efflux from inner chambers after 1 hr Aβ added: 1.1 ± 0.28 ng/mL
  IVIG-induced Aβ efflux from inner chambers after 3 hrs Aβ added: 2.86 ± 0.86 ng/mL
LRP1 [1]; LRP1 knockdown by siRNA, without IVIG, 1 μM Aβ, scrambled siRNA control 0.28±0.08, p<0.05, n=3
  Aβ concentration in outer chamber 1 hr after Aβ added: 0.02 ± 0.004 ng/mL
LRP1 [1]; LRP1 knockdown by siRNA, without IVIG, 1 μM Aβ, scrambled siRNA control 4.0±0.31, p<0.05, n=3
  Aβ concentration in outer chamber 3 hrs after Aβ added: 1.17 ± 0.38 ng/mL
LRP1 [2]
  reduction of LRP1 at protein expression levels as compared to the scrambled siRNA controls: 84.7%
